In article PMC7502707, “Characterization and validation of a preventative therapy for hypertrophic cardiomyopathy in a murine model of the disease” (Proceedings of the National Academy of Sciences of the …, 2020):

Molecular target: T1, cardiac L-type calcium channel (ICa-L) (Mus musculus, UniProt Q01815)
T1 construct: measure changes in ICa-L currents ([13]), and stimulate calcium transients in intact ventricular myocytes; endogenous in cells; host or cells: ventricular myocytes isolated from wt (human cTnI transgene) and cTnI-G203S mice
Experiment: Whole-cell patch-clamp of ICa-L currents in ventricular myocytes
Assay type: cell-based
Details: cTnI-G203S myocytes, in vitro 1 μM peptide
Experimental: The whole-cell configuration of the patch-clamp technique was used to measure changes in ICa-L currents ([13]), and stimulate calcium transients in intact ventricular myocytes. Detailed methods are provided in SI Appendix.
Supporting Materials and Methods
Isolation of ventricular myocytes
Myocytes were isolated from wt and cTnI-G203S mice. Animals were anesthetized with pentobarbitone sodium (240 mg/kg) via intraperitoneal injection prior to excision of the heart. Cells were isolated as previously described (1-3). Mouse hearts were excised, cannulated onto a Langendorff apparatus via the aorta, and perfused with Krebs-Henseleit Buffer (KHB) containing […]
O2/CO2 at 37°C) for 4 min at 37°C. […]
The whole-cell configuration of the patch-clamp technique was used to measure changes in ICa-L currents (4), and stimulate calcium transients in intact ventricular myocytes. […] Currents were measured in extracellular modified Tyrode’s solution containing (in mM): NaCl 140, CsCl 5.4, CaCl2 2.5, MgCl2 0.5, HEPES 5.5 and glucose 11 (pH adjusted to 7.6 with NaOH). Macroscopic currents were recorded using an Axopatch 200B voltage-clamp amplifier (Molecular Devices) with a Digidata 1440A interface and pClamp10.5 software (Molecular Devices). […] The time course of changes in Ca2+ conductance were monitored by applying a 100 ms test pulse to 10 mV once every 10 seconds. […]

QQLEEDLKGYLDWITQAE [AID-TAT]
ICa-L current density: no significant alteration | ICa-L inactivation rate (tau) (37 °C): restored ICa-L inactivation rate to wt levels
